Source: US8304238B2, “Cell culture medium and immobilized preparation of cell adhesion protein or peptide” (Nat'l Institute for Environmental Studies, priority 2003, dated 2012)
Entries after “also recorded” stand apart in the source; their conditions may differ. Where no end group is shown, it is not given here.

Legend:
[1] = system: alveolar type II epithelial cells (T2 cells); experiment: Binding strength (affinity) of immobilized LN peptides to T2 cells relative to immobilized FIB-1 (mixed immobilization, free FIB-1 competition); assay type: cell-based; design: key to Binding strength to T2 cells, Comprehensive evaluation: AA: extremely strongly binding/adhering; A: strongly binding/adhering; B: intermediately binding/adhering (as the same degree as FIB-1 peptide); C: more weakly binding/adhering than FIB-1 peptide; conditions: for Binding strength to T2 cells, Comprehensive evaluation: classification relative to FIB-1 peptide; for Binding strength to T2 cells, Ratio to FIB-1: inverse of mixing ratio at transitional midpoint, MMAC-coated well; for Binding strength to T2 cells, Ratio to FIB-1 / Mixing ratio at the transitional midpoint: FIB-1 0.25 mg/ml; for Mixing ratio at the transitional midpoint: peptide:FIB-1 co-immobilized, loss of inhibition by free FIB-1
Description: Therefore, the amount of FIB-1 peptide was set at 0.25 mg/ml, and AG73 peptide was mixed therewith, while changing its concentration ratio, from 1/1.250 of FIB-1 in an amount which is 0.20 μg/ml, to ½ of FIB-1 in an amount which is 0.125 mg/ml, and the mixture was immobilized on a well wherein a hydrophobic binding-adsorptive polymer MMAC was coated. The amount of cell adhesion in the case where T2 cells were cultured under a serum-free condition for 1 day on the immobilized peptides is shown in FIG. 9, in comparison with the case where the culture was conducted on the immobilized FIB-1, which was set at 100%.
However, in a case that the ratio of FIB-1:AG73 increased to 1:0.02, because T2 cells already transited to be adherent through the immobilized AG73 peptide, free FIB-1 peptide could no longer inhibit the cell adhesion. […] Likewise, with regard to A3G72 and A4G82 peptides, because the mixing ratio at the transitional midpoint=0.1, their binding strength to T2 cells is 10 times as much as that of FIB-1.
The method used in FIGS. 8 and 9 is extremely effective as a convenient method by which a relative order can be measured concerning to the binding strength (affinity) of cell adhesion peptides and the strength of cell adhesion can be considered quantitatively.
In Table 1, the classification is shown based on the results of the affinity (bonding/adhesion strength) between FIB-1 peptide containing RGD amino acid sequence of FN molecule, a binding site to integrin, and T2 cells: laminin α-chain G-domain peptides are classified into class AA, extremely strong binding/adhesion; class A, strong adhesion; class B, adhesion as the same degree as FIB-1; and class C, binding weaker than the described above.

[2] = system: alveolar type II epithelial cells (T2 cells); experiment: Inhibition by free cell adhesion peptides of T2 cell adhesion to coated cell adhesion proteins FN, Col I, LN, VN; assay type: cell-based; conditions: for Inhibition of adhesion of T2 cells to FN, Col I, LN and VN by free peptide: free peptide 0.25 mg/ml, serum-free, 1 day
Description: Commercially available FN, LN and VN, usually used as cell adhesion proteins at cell culture, were coated to wells at the concentrations of 5 μg/ml, 10 μg/ml and 10 μg/ml, respectively. In case of Col I (collagen type I), Col I at the concentration of 100 μg/ml, dissolved in 1 mM HCl, was poured into a well, left stand still for a while, and then the solution was removed and air-drying was conducted, and rinsed with the medium, before use. Next, 6×10^5 cells/ml of alveolar type II epithelial cells (T2 cells) suspended in the serum-free DMEM medium was seeded by 100 μl each on a 96-well to which the extracellular matrix was coated, and cultured in a CO2 incubator at 37° C. for 1 day. After the culture was finished, the cells were fixed with 100 μl of methanol for 5 minutes, and stained for 30 minutes with 50 μl of 0.4% crystal violet. Excessive staining was washed with water, then the number of cells adhered to FN, Col I, LN and VN, which had been coated to the wells, was counted based on the absorbance of cytoplasm (A595).
On the other hand, among amino acid sequences of various LN molecules, the sequences that induce cell adhesion are known to be present. […] Then, the number of cells was counted in accordance with the method described above.

[3] = system: alveolar type II epithelial cells (T2 cells); experiment: Inhibition of T2 cell adhesion by free peptide different from the immobilized peptide substrate; assay type: cell-based; conditions: for Inhibition by free peptide of T2 cell adhesion to immobilized AG73: AG73 (etc.) immobilized; for Inhibition by free peptide of T2 cell adhesion to immobilized FIB-1: FIB-1 immobilized
Description: Results obtained by adding the free peptides different from the immobilized peptides when T2 cells were cultured on the immobilized peptide prepared according to the method in Example 7, were shown in FIG. 8.
When adding the free peptides that were the same as the immobilized peptides in the culture medium, the both (free and immobilized) peptides compete for syndecan of T2 cells and as a result, the cell adhesion is inhibited (see Example 7). So far, four types of syndecans are genetically known. Whether these syndecans are commonly owned or accommodated by each peptide, overlapping only by some degrees, otherwise mutually exclusive, was examined herein.

[4] = system: alveolar type II epithelial cells (T2 cells); experiment: Time course of cell adhesion/spreading of T2 cells on immobilized cell adhesion peptide substrates; assay type: cell-based
Description: Culture was conducted by using the cell adhesion peptides immobilized on a well and T2 cells, for 1-24 hours according to the method in Example 8.
As cell adhesion peptides, AG73 was used in B, E and M, FIB-1 was used in C, L and O, A3G72 was used in F, A4G82 was used in G and N, A5G71 was used in H, A5G77 was used in I, hA3G75 was used in J, and hA3G83 was used in K; FN was used as a standard substance in A and D.

[5] = system: alveolar type II epithelial cells (T2 cells); experiment: Static and forced stretching culture of T2 cells on MMAC-coated silicone wells with immobilized proteins or peptides; assay type: cell-based; conditions: for Reorientation of T2 cells under forced stretching: 1 day static, 1 day stretching (1dC-1dS), 25 percent, 15 times per minute; for Change of type II epithelial cells into a shape like type I epithelial cells: 3 days static, 3 days stretching (3dC-3dS)
Description: A silicone well coated with MMAC was obtained by pouring 0.5 ml of ethanol solution of 50 μg/ml of MMAC (ISP, International Specialty Products, USA) into a silicone well with a groove of 20 mm×20 mm×10 mm, absorbing excess solution, and conducting air-drying.
Into the silicone wells coated by the method described in Example 1, 10 μg/ml of cell adhesion protein solution of fibronectin (FN), laminin-1 (LN), dissolved in 0.1 M triethanolamine buffer solution of pH 8.8, or 0.25 mg/ml of cell adhesion peptide solution of FIB-1, AG73 was poured respectively, and the reaction was conducted for at least several hours at 37° C. to bind and immobilize these proteins or peptides having cell adhesion activity (see Example 6 described later for particulars of immobilization). Subsequently, alveolar type II epithelial cell (T2 cells) suspension was poured, 5×10^4/cm^2 per unit area, and the culture was started in a CO2 culture apparatus.
T2 cells, 2×10^5/cm^2 per unit area, were seeded on the silicone well wherein the cell adhesion proteins or peptides were immobilized, which had been prepared in an almost same manner as that of Example 2, and static culture was conducted for 1 day. After confirming that the seeded cells confluently spread all over the culture face, horizontal cell stretching was forcibly started at the stretching degree of twenty five percents and at the frequency of 15 times per minute, by using cell culture stretching apparatus (Scholar Tec), and the culture was continued one more day. After the culture was finished, photographs of cell adhesion state were taken with a phase contrast microscope (FIG. 2, top 4 rows).
T2 cells, 5×10^4/cm^2 per unit area, were seeded on the silicone well wherein the cell adhesion proteins or peptides were immobilized, which had been prepared in an almost same manner as that of Example 2, and static culture was conducted for 3 days. T2 cells grew in a manner similar to that shown in FIG. 1, 3d (results are not shown because they are overlapping). Then, the cells were subjected to the same stimuli of forced stretching as in Example 1, and the culture was continued one more day. After the culture was finished, photographs of cell adhesion state were taken with a phase contrast microscope (FIG. 2, middle 4 rows) (FN, 3dC-1dS, LN, 3dC-1dS, FIB-1, 3dC-1dS, and AG-73, 3dC-1dS).
Forced stretching culture was conducted for 3 days in an almost same manner as stretching culture of Example 4. After the culture was finished, photographs of cell adhesion state were taken with a phase contrast microscope (FIG. 2, bottom 4 rows) (FN, 3dC-3dS, LN, 3dC-3dS, FIB-1, 3dC-3dS, and AG-73, 3dC-3dS).

[6] = target: syndecan present on the cell surface of T2 cells (alveolar type II epithelial cells); experiment: T2 cell adhesion to FIB-1 and the peptide co-immobilized on MMAC-coated wells, inhibition by free FIB-1 (FIG. 9)
[7] = target: syndecan present on the cell surface of T2 cells (alveolar type II epithelial cells); experiment: T2 cell adhesion to immobilized peptides, competitive inhibition by free peptides (FIGS. 8 and 9)

| Molecule | Binding strength to T2 cells, Comprehensive evaluation [1] | Binding strength to T2 cells, Ratio to FIB-1 [1] | Mixing ratio at the transitional midpoint [1] | Inhibition of adhesion of T2 cells to FN, Col I, LN and VN by free peptide [2] | Inhibition by free peptide of T2 cell adhesion to immobilized AG73 [3] | Inhibition by free peptide of T2 cell adhesion to immobilized FIB-1 [3] | Cell adhesion/spreading on immobilized peptide ([4]; 6-hour culture) | mixing ratio at the transitional midpoint (peptide to FIB-1) [6] | Binding strength to T2 cells, Ratio to FIB-1 (fold (ratio to FIB-1)) [7] | further results |
| --- | --- | --- | --- | --- | --- | --- | --- | --- | --- | --- |
| GNSTISIRAPVY | B | 1-2 | about 1 | inhibited adhesion of T2 cells | inhibited the cell adhesion | could inhibit | delay in spreading but sufficient cell adhesion | – | – | – |
| KNSFMALYLSKG | B | 2 | about 1 | inhibited adhesion of T2 cells | inhibited the cell adhesion | could inhibit | delay in spreading but sufficient cell adhesion | – | – | – |
| KPRLQFSLDIQT | A | 10 | 0.1 | inhibited adhesion of T2 cells | inhibited the cell adhesion | – | the cells were spreading | – | – | – |
| RKRLQVQLSIRT | AA | 100 | 0.01 | inhibited adhesion of T2 cells | inhibited the cell adhesion | inhibited; also recorded: could inhibit | the cells were spreading | – | – | Inhibition of adhesion of T2 cells to cell adhesion proteins by free peptide ([2]; free peptide 0.12 mg/ml): exhibited the inhibitory activity; Cell adhesion/spreading on immobilized peptide ([4]; 24-hour culture): almost all cells had finished spreading; Reorientation of T2 cells under forced stretching [5]: spread in an elongated shape to a direction perpendicular to the direction of forced stretching; Change of type II epithelial cells into a shape like type I epithelial cells [5]: changed into a shape like flat type I epithelial cells |
| TLFLAHGRLVFM | A | 10 | 0.1 | inhibited adhesion of T2 cells | inhibited the cell adhesion | could inhibit | the cells were spreading | – | – | Cell adhesion/spreading on immobilized peptide ([4]; 24-hour culture): almost all cells had finished spreading |
| fibronectin [FN] | – | – | – | – | – | – | – | – | – | Reorientation of T2 cells under forced stretching [5]: not very obvious; Change of type II epithelial cells into a shape like type I epithelial cells [5]: less observed |
| laminin-1 [LN] | – | – | – | – | – | – | – | – | – | Reorientation of T2 cells under forced stretching [5]: not very obvious; Change of type II epithelial cells into a shape like type I epithelial cells [5]: changed into a shape like flat type I epithelial cells |
| GNSTISIRAPVY [hA3G83 (Gly-Asn-Ser-Thr-Ile-Ser-Ile-Arg-Ala-Pro-Val-Tyr)] | – | – | – | – | – | – | – | 1 | – | – |
| VKTEYIKRKAFM [AG81.2 (Val-Lys-Thr-Glu-Tyr-Ile-Lys-Arg-Lys-Ala-Phe-Met)] | – | – | – | – | – | – | – | – | < 1 | – |
| KPRLQFSLDIQT [A3G72 (Lys-Pro-Arg-Leu-Gln-Phe-Ser-Leu-Asp-Ile-Gln-Thr)] | – | – | – | – | – | – | – | 0.1 | 10 | – |
| LVLFLNHGHFVA [A5G77 (Leu-Val-Leu-Phe-Leu-Asn-His-Gly-His-Phe-Val-Ala)] | – | – | – | – | – | – | – | 1 | – | – |
| TLFLAHGRLVFM [A4G82 (Thr-Leu-Phe-Leu-Ala-His-Gly-Arg-Leu-Val-Phe-Met)] | – | – | – | – | – | – | – | 0.1 | 10 | – |
| KNSFMALYLSKG [hA3G75 (Lys-Asn-Ser-Phe-Met-Ala-Leu-Tyr-Leu-Ser-Lys-Gly)] | – | – | – | – | – | – | – | 1 | 2 | – |
